Assay: Competitive slurry trials between A-form and D-form (thermodynamic stability)
Type: physicochemical
Conditions: for Solid form stability in competitive slurry: slurries containing A-form and D-form in methanol, held at about 5° C. to about 50° C.; for Relative thermodynamic stability of crystalline forms: D-form versus A-form, conclusion from competitive slurries in methanol, about 5° C. to about 50° C.
Description: Competitive slurry trials were performed between the A-form (obtained by Example 1) and the D-form (obtained by Example 2).
Competitive slurries containing the A-form and D-form in methanol were held at any temperatures ranging from about 5° C. to about 50° C.
Complete conversion of the A-form to the D-form takes place, if the slurry is held at a particular temperature for a sufficient duration of time.

Row | Structure (SMILES) | Solid form stability in competitive slurry | Relative thermodynamic stability of crystalline forms | Relative thermodynamic stability of crystalline forms (listed as Form D)
1 | C[C@@H](Oc1cc(NS(=O)(=O)N2CCC2)nc(SCc2cccc(F)c2F)n1)[C@@H](O)CO [A-form, N-[2-[[(2,3-difluorophenyl)methyl]thio]-6-{[(1R,2S)-2,3-dihydroxy-1-methylpropyl]oxy}-4-pyrimidinyl]-1-azetidinesulfonamide] | transforms to the D-form | – | –
2 | C[C@@H](Oc1cc(NS(=O)(=O)N2CCC2)nc(SCc2cccc(F)c2F)n1)[C@@H](O)CO [D-form, N-[2-[[(2,3-difluorophenyl)methyl]thio]-6-{[(1R,2S)-2,3-dihydroxy-1-methylpropyl]oxy}-4-pyrimidinyl]-1-azetidinesulfonamide] | remained stable | thermodynamically more stable form than the A-form | more thermodynamically stable than the A-form

Source: patent publication US8748603B2, “Crystalline forms of N-[2-[[(2,3-difluorophenyl)methyl]THIO]-6-{[(1R,2S)-2,3-dihydroxy-1-methylpropyl]oxy}-4-pyrimidinyl]-1-azetidinesulfonamide” (AstraZeneca AB, priority 2010, dated 2014)
